{
  "source": "paper PMC9529944",
  "about": "“Molecular asymmetry of a photosynthetic supercomplex from green sulfur bacteria” (Nature Communications, 2022)",
  "molecules": {"B1": {"name": "PscD (natural protein, UniProt Q8KEP5 1-143, looked up)", "chain": "MQPQLSRPQTASNQVRKAVSGPWSGNAVHKAEKYFITSAKRDRDGKLQIELVPASGRRKLSPTPEMIRRLIDGEIEIYILTTQPDIAIDMNKEIIDMENRYVIDFDKRGVKWTMREIPVFYHEGKGLCVELHNKIYTLDQFFK", "notes": "PscD subunit of the reaction center of Chlorobaculum tepidum; also called PscD subunit"}, "B2": {"name": "Fenna-Matthews-Olson (FMO) complex (natural protein, UniProt Q46393 1-366, looked up)", "chain": "MALFGSNDVTTAHSDYEIVLEGGSSSWGKVKARAKVNAPPASPLLPADCDVKLNVKPLDPAKGFVRISAVFESIVDSTKNKLTIEADIANETKERRISVGEGMVSVGDFSHTFSFEGSVVNLFYYRSDAVRRNVPNPIYMQGRQFHDILMKVPLDNNDLIDTWEGTVKAIGSTGAFNDWIRDFWFIGPAFTALNEGGQRISRIEVNGLNTESGPKGPVGVSRWRFSHGGSGMVDSISRWAELFPSDKLNRPAQVEAGFRSDSQGIEVKVDGEFPGVSVDAGGGLRRILNHPLIPLVHHGMVGKFNNFNVDAQLKVVLPKGYKIRYAAPQYRSQNLEEYRWSGGAYARWVEHVCKGGVGQFEILYAQ", "notes": "FMO bacteriochlorophyll a protein of Chlorobaculum tepidum TLS; homotrimer, each monomer with eight BChl a; Two trimers (FMO1, FMO2) of the same protein sit on one reaction center in the RC-FMO2 structure; they are one molecule here; also called FMO trimer; FMO1"}},
  "key": {"[1]": {"target": "T1, GsbRC core (PscA dimer) in the RC-FMO2 photosynthetic supercomplex (Chlorobaculum tepidum, UniProt Q8KAY0)", "T1 construct": "gene CT2020; native complex from membranes of C. tepidum, DDM-solubilized, no tags; homodimeric PscA core with associated subunits; PscE 59 residues modeled; with Photosystem P840 reaction center iron-sulfur protein; Cytochrome c (photosystem P840 reaction center cytochrome c-551); Photosystem P840 reaction center protein PscD; PscE, accessory membrane subunit; Ric1 protein; Bacteriochlorophyll a protein", "test": "cryo-EM structure, RC-FMO2 […] Å", "type": "binding"}, "[2]": {"target": "T2, PscB (Chlorobaculum tepidum, UniProt Q8KAY1)", "T2 construct": "native subunit in the RC-FMO2 supercomplex, no tags; loop 17-129 unmodelled; with Photosystem P840 reaction center, large subunit", "test": "cryo-EM structure, RC-FMO2 […] Å", "type": "binding", "settings": "FA and FB clusters"}, "[3]": {"target": "B2", "test": "cryo-EM structure; single-particle cryo-EM of the native supercomplex extracted with DDM from C. tepidum membranes; RC-FMO2 at 3.08 Å (local 2.92 and 3.06 Å), RC-FMO1 at 3.49 Å; 20 mM Tris-Cl pH 8.0, 200 mM NaCl, 0.17 mM DDM", "settings": "both partners purified"}, "[4]": {"target": "the molecule itself", "test": "cryo-EM structure; single-particle cryo-EM of the native supercomplex extracted with DDM from C. tepidum membranes; RC-FMO2 at 3.08 Å (local 2.92 and 3.06 Å), RC-FMO1 at 3.49 Å; 20 mM Tris-Cl pH 8.0, 200 mM NaCl, 0.17 mM DDM"}},
  "data": [
    {"molecule": "CC(C)=CCC/C(C)=C/C=C/C(C)=C/C=C/C(C)=C/C=C/C=C(C)/C=C/C=C(C)/C=C/c1c(C)ccc(C)c1C", "note": "[F26, chlorobactene]", "values": [
      {"measurement": "cryo-EM structure, RC-FMO2 3.08 Å", "setting": "[1]; three molecules in RC core", "value": "four Chl a, three chlorobactenes (F26)"}
    ]},
    {"molecule": "[S]1[Fe]2[S]3[S]4[Fe][S]2[Fe]4[Fe]13", "note": "[SF4, iron-sulfur cluster]", "values": [
      {"measurement": "cryo-EM structure, RC-FMO2 3.08 Å", "setting": "[1]; FX cluster at PscA dimer", "value": "The FeS clusters and P840 dimer that drive the ETC in RC-FMO2 are arranged similarly"},
      {"measurement": "cryo-EM structure, RC-FMO2 3.08 Å", "setting": "[2]", "value": "Cartoons are the protein residues that interact with the FeS clusters"}
    ]},
    {"molecule": "B1", "values": [
      {"measurement": "binding result", "setting": "[3]", "value": "binds"}
    ]},
    {"molecule": "B2", "values": [
      {"measurement": "binding result", "setting": "[4]", "value": "binds"}
    ]}
  ]
}
